# Test results as given in patent publication US11000033B2, “Ketone or oxime compound, and herbicide” (NISSAN CHEMICAL CORPORATION, priority 2014, dated 2021).
# Tests used:
# Assay type in all cases: in vivo
# wheat = assay: Test Example 5: effect on crop by foliage application, plastic box (symbol e); conditions: 320 g/ha, 3 weeks after application
# How it was run: (§1)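 Foliage-application test plants come from spot sowing in sterilized diluvial soil under a soil layer of about 1.5 cm, grown at 25° C. to 30° C. in a greenhouse.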
# corn = assay: Test Example 5: effect on crop by foliage application, plastic box (symbol c); conditions: 320 g/ha, 3 weeks after application
# How it was run: as §1
# [1] = tested on: Echinochloa oryzacola Vasing.; assay: Test Example 2: herbicidal activity, application during weed generation in submerged conditions (symbol A); conditions: Table 23; application herbicide amount 320 g/ha; grade 0-5 by criteria of Test Example 1
# How it was run: (§2)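 Compound was applied as a water-diluted emulsion into the standing water of flooded pots (4 cm) once co-sown weeds reached one to two leaves. Greenhouse temperature was 25° C. to 30° C., soil was alluvial, and each species was rated visually after 3 weeks.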
# transplanted rice plant = assay: Test Example 1: effect on crop, application before weed generation in submerged conditions (symbol a); conditions: application herbicide amount 320 g/ha
# How it was run: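 Rice at 2.5 leaf stage transplanted into submerged soil (4 cm depth) sown with three weed species; herbicide applied before weed emergence.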
# Avena fatua = assay: Test Example 4: herbicidal effect by soil treatment (symbol I); conditions: application herbicide amount 320 g/ha
# How it was run: (§3)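 Seeds were sown in sterilized diluvial soil, covered with about 1.5 cm of soil, and the soil surface was sprayed with a water-diluted emulsion of the compound at a predetermined rate. Plants grew in a greenhouse at 25° C. to 30° C.; effects were scored visually 3 weeks after application.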
# [2] = tested on: directly sowed rice plant; assay: Test Example 3: effect on crop by foliage application, Wagner pot (symbol b); conditions: application herbicide amount 320 g/ha
# How it was run: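 Steps: fill a 1/10000-are Wagner pot with alluvial soil; add water and mix to submerge at 0.1–0.5 cm depth; sow rice plus Echinochloa crus-galli var. crus-galli, Leptochloa chinensis and Cyperus difformis; grow in a 25–30 °C greenhouse.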
# Digitaria ciliaris = assay: Test Example 5: herbicidal effect by foliage application, plastic box (symbol F); conditions: 320 g/ha, 3 weeks after application
# How it was run: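 Emulsion formulation, diluted with water to the intended rate, was applied uniformly to leaves by small sprayer. Recipients were 14-day greenhouse-grown seedlings (25° C. to 30° C.). Assessment followed at 3 weeks.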
# Setaria viridis = assay: Test Example 4: herbicidal effect by soil treatment (symbol G); conditions: application herbicide amount 320 g/ha
# How it was run: as §3
# rapeseed = assay: Test Example 4: effect on crop by soil treatment (symbol g); conditions: application herbicide amount 320 g/ha
# How it was run: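 Sterilized diluvial soil, spot sowing, ~1.5 cm soil cover; greenhouse 25–30° C.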
# [3] = tested on: Echinochloa oryzacola Vasing.; assay: Test Example 1: herbicidal activity, application before weed generation in submerged conditions (symbol A); conditions: application herbicide amount 320 g/ha
# How it was run: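 Steps: alluvial soil flooded to 4 cm; weed seeds sown together; rice seedlings (2.5 leaf) transplanted; diluted emulsion applied to water surface the same day as sowing; plants grown at 25–30 °C in greenhouse; herbicidal effect rated on a 0–5 scale at 3 weeks.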
# Monochoria vaginalis = assay: Test Example 2: herbicidal activity, application during weed generation in submerged conditions (symbol C); conditions: Table 23; application herbicide amount 320 g/ha; grade 0-5 by criteria of Test Example 1
# How it was run: as §2
SMILES,"e: wheat, effect on crop grade (wheat)","c: corn, effect on crop grade (corn)","Herbicidal effect grade, A: Echinochloa oryzacola Vasing. [1]","Effect grade on crop, a: transplanted rice plant (transplanted rice plant)","I: Avena fatua, herbicidal effect grade (Avena fatua)","effect on crop b (directly sowed rice plant), grade 0-5 [2]","F: Digitaria ciliaris, herbicidal effect grade (Digitaria ciliaris)","G: Setaria viridis, herbicidal effect grade (Setaria viridis)","g: rapeseed, effect on crop grade (rapeseed)","Herbicidal effect grade, A: Echinochloa oryzacola Vasing. [3]","Herbicidal effect grade, C: Monochoria vaginalis (Monochoria vaginalis)"
CCC(CCC1CC(O)=C(c2c(C)cc(C)cc2C)C1=O)=NOC (mixture of isomers) [4-001],0 (Herbicidal ratio of 5% or lower (almost no effect)),1 (Herbicidal ratio of 5% or higher and lower than 20%),0 (Herbicidal ratio of 5% or lower (almost no effect)),0 (Herbicidal ratio of 5% or lower (almost no effect)),0 (Herbicidal ratio of 5% or lower (almost no effect)),4 (Herbicidal ratio of 70% or higher and lower than 90%),3 (Herbicidal ratio of 40% or higher and lower than 70%),0 (Herbicidal ratio of 5% or lower (almost no effect)),1 (Herbicidal ratio of 5% or higher and lower than 20%),0 (Herbicidal ratio of 5% or lower (almost no effect)),0 (Herbicidal ratio of 5% or lower (almost no effect))
CCc1cc(-n2cc(Cl)cn2)cc(C)c1C1=C(O)CC(CC(C)=NOC)C1=O (mixture of isomers) [6-005],4 (Herbicidal ratio of 70% or higher and lower than 90%),5 (Herbicidal ratio of 90% or more (almost completely withered)),5 (Herbicidal ratio of 90% or more (almost completely withered)),5 (Herbicidal ratio of 90% or more (almost completely withered)),4 (Herbicidal ratio of 70% or higher and lower than 90%),5 (Herbicidal ratio of 90% or more (almost completely withered)),5 (Herbicidal ratio of 90% or more (almost completely withered)),5 (Herbicidal ratio of 90% or more (almost completely withered)),0 (Herbicidal ratio of 5% or lower (almost no effect)),5 (Herbicidal ratio of 90% or more (almost completely withered)),3 (Herbicidal ratio of 40% or higher and lower than 70%)
CC#Cc1cc(C)c(C2=C(O)CC(CC(C)=NOC)C2=O)c(CC)c1 (mixture of isomers) [6-006],5 (Herbicidal ratio of 90% or more (almost completely withered)),1 (Herbicidal ratio of 5% or higher and lower than 20%),5 (Herbicidal ratio of 90% or more (almost completely withered)),5 (Herbicidal ratio of 90% or more (almost completely withered)),4 (Herbicidal ratio of 70% or higher and lower than 90%),5 (Herbicidal ratio of 90% or more (almost completely withered)),3 (Herbicidal ratio of 40% or higher and lower than 70%),5 (Herbicidal ratio of 90% or more (almost completely withered)),4 (Herbicidal ratio of 70% or higher and lower than 90%),5 (Herbicidal ratio of 90% or more (almost completely withered)),1 (Herbicidal ratio of 5% or higher and lower than 20%)
CCc1cc(C#C[Si](C)(C)C)cc(C)c1C1=C(O)CC(CC(C)=NOC)C1=O (mixture of isomers) [6-008],4 (Herbicidal ratio of 70% or higher and lower than 90%),3 (Herbicidal ratio of 40% or higher and lower than 70%),5 (Herbicidal ratio of 90% or more (almost completely withered)),5 (Herbicidal ratio of 90% or more (almost completely withered)),4 (Herbicidal ratio of 70% or higher and lower than 90%),5 (Herbicidal ratio of 90% or more (almost completely withered)),0 (Herbicidal ratio of 5% or lower (almost no effect)),5 (Herbicidal ratio of 90% or more (almost completely withered)),0 (Herbicidal ratio of 5% or lower (almost no effect)),5 (Herbicidal ratio of 90% or more (almost completely withered)),5 (Herbicidal ratio of 90% or more (almost completely withered))
CC#Cc1cc(C)c(C2=C(O)CC(CC(C)=NOC)C2=O)c(C)c1 (mixture of isomers) [6-009],5 (Herbicidal ratio of 90% or more (almost completely withered)),5 (Herbicidal ratio of 90% or more (almost completely withered)),3 (Herbicidal ratio of 40% or higher and lower than 70%),3 (Herbicidal ratio of 40% or higher and lower than 70%),4 (Herbicidal ratio of 70% or higher and lower than 90%),5 (Herbicidal ratio of 90% or more (almost completely withered)),5 (Herbicidal ratio of 90% or more (almost completely withered)),5 (Herbicidal ratio of 90% or more (almost completely withered)),4 (Herbicidal ratio of 70% or higher and lower than 90%),5 (Herbicidal ratio of 90% or more (almost completely withered)),0 (Herbicidal ratio of 5% or lower (almost no effect))
CON=C(C)CC1CC(O)=C(c2c(C)cc(C#CC3CC3)cc2C)C1=O (mixture of isomers) [6-010],4 (Herbicidal ratio of 70% or higher and lower than 90%),4 (Herbicidal ratio of 70% or higher and lower than 90%),5 (Herbicidal ratio of 90% or more (almost completely withered)),5 (Herbicidal ratio of 90% or more (almost completely withered)),3 (Herbicidal ratio of 40% or higher and lower than 70%),5 (Herbicidal ratio of 90% or more (almost completely withered)),5 (Herbicidal ratio of 90% or more (almost completely withered)),5 (Herbicidal ratio of 90% or more (almost completely withered)),0 (Herbicidal ratio of 5% or lower (almost no effect)),5 (Herbicidal ratio of 90% or more (almost completely withered)),0 (Herbicidal ratio of 5% or lower (almost no effect))
CON=C(C)CC1CC(O)=C(c2c(C)cc(-c3ccc(C(F)(F)F)cc3)cc2C)C1=O (mixture of isomers) [6-016],0 (Herbicidal ratio of 5% or lower (almost no effect)),5 (Herbicidal ratio of 90% or more (almost completely withered)),3 (Herbicidal ratio of 40% or higher and lower than 70%),4 (Herbicidal ratio of 70% or higher and lower than 90%),0 (Herbicidal ratio of 5% or lower (almost no effect)),5 (Herbicidal ratio of 90% or more (almost completely withered)),5 (Herbicidal ratio of 90% or more (almost completely withered)),5 (Herbicidal ratio of 90% or more (almost completely withered)),0 (Herbicidal ratio of 5% or lower (almost no effect)),5 (Herbicidal ratio of 90% or more (almost completely withered)),0 (Herbicidal ratio of 5% or lower (almost no effect))
